Assay results: the supplement of paper PMC10307832

Key:
Test in all cases: relative viability (nuclei count vs DMSO), 5 days (fraction); higher = more cells survive
RO-3306 + Dasatinib = compound: C1=CC2=C(C=CC(=C2)C=C3C(=O)NC(=NCC4=CC=CS4)S3)N=C1 [RO-3306] + Cc1nc(Nc2ncc(C(=O)Nc3c(C)cccc3Cl)s2)cc(N2CCN(CCO)CC2)n1 [Dasatinib] (partner 0.075 µM)
In short: (§1)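 One day after seeding in 1536-well plates, lung cancer cell lines were dosed by pin tool. Dosing was either single-drug or a fixed anchor-drug dose plus five library-drug doses (not always all listed) in √10 steps. After 5 days, nuclei were stained in one fix-and-stain step and counted on 4× images, and relative viability is the nuclei count of treated wells over that of vehicle wells, given as the median of duplicate plates.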

RO-3306 + Trametinib = compound: C1=CC2=C(C=CC(=C2)C=C3C(=O)NC(=NCC4=CC=CS4)S3)N=C1 [RO-3306] + CC(=O)Nc1cccc(-n2c(=O)n(C3CC3)c(=O)c3c(Nc4ccc(I)cc4F)n(C)c(=O)c(C)c32)c1 [Trametinib] (partner 0.02 µM)
In short: as §1

[1] = compound: O=S(=O)(c1ccccc1)N(CC(F)(F)F)c1ccc(C(O)(C(F)(F)F)C(F)(F)F)cc1 + Cc1nc(Nc2ncc(C(=O)Nc3c(C)cccc3Cl)s2)cc(N2CCN(CCO)CC2)n1 [Dasatinib] (partner 0.075 µM)
In short: as §1

RO-3306 + Pemetrexed = compound: C1=CC2=C(C=CC(=C2)C=C3C(=O)NC(=NCC4=CC=CS4)S3)N=C1 [RO-3306] + Nc1nc2[nH]cc(CCc3ccc(C(=O)N[C@@H](CCC(=O)O)C(=O)O)cc3)c2c(=O)[nH]1 [Pemetrexed] (partner 0.2 µM)
In short: as §1

Cell Line	relative viability (RO-3306 + Dasatinib; first compound 0.01 µM)	relative viability (RO-3306 + Dasatinib; first compound 0.03162 µM)	relative viability (RO-3306 + Dasatinib; first compound 0.1 µM)	relative viability (RO-3306 + Dasatinib; first compound 0.3162 µM)	relative viability (RO-3306 + Dasatinib; first compound 1 µM)	relative viability (RO-3306 + Trametinib; first compound 0.01 µM)	relative viability (RO-3306 + Trametinib; first compound 0.03162 µM)	relative viability (RO-3306 + Trametinib; first compound 0.1 µM)	relative viability (RO-3306 + Trametinib; first compound 0.3162 µM)	relative viability (RO-3306 + Trametinib; first compound 1 µM)	relative viability ([1]; first compound 0.8 µM)	relative viability ([1]; first compound 2.53 µM)	relative viability ([1]; first compound 8 µM)	relative viability (RO-3306 + Pemetrexed; first compound 0.01 µM)	relative viability (RO-3306 + Pemetrexed; first compound 0.03162 µM)	relative viability (RO-3306 + Pemetrexed; first compound 0.1 µM)	relative viability (RO-3306 + Pemetrexed; first compound 0.3162 µM)	relative viability (RO-3306 + Pemetrexed; first compound 1 µM)
A-427	0.739	0.565	0.644	0.631	0.551	0.782	0.802	0.679	0.758	0.669	0.737	0.653	0.846	0.942	0.902	0.966	0.937	0.607
NCI-H441	0.499	0.392	0.657	0.485	0.709	0.451	0.341	0.368	0.439	0.428	0.868	0.501	0.577	0.266	0.276	0.228	0.235	0.23
NCI-H1993	0.754	0.49	0.695	0.586	0.523	0.506	0.546	0.6	0.533	0.439	0.451	0.441	0.544	0.627	0.5	0.624	0.573	0.539
NCI-H1975	0.345	0.324	0.344	0.35	0.344	0.348	0.319	0.309	0.33	0.331	0.353	0.339	0.298	0.28	0.269	0.303	0.321	0.302
